Assay results from patent US11053204B2, “Pyrimidinyloxy benzene derivatives as herbicides” (FMC Corporation, priority 2015, dated 2021).

Columns and labels:
Assay type in all cases: in vivo
[1] = tested on: Italian ryegrass (Lolium multiflorum); assay: Test A preemergence, visual injury rating
Procedure, shortened: (§1)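 Greenhouse pot test, loam/sand soil. Formulation: non-phytotoxic solvent mix plus surfactant. Pre: directed spray onto soil after sowing. Post: plants at 1–2 leaf, 2–10 cm. Rated visually vs untreated controls at ~10 d, 0 (no effect) to 100 (complete control).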

[2] = tested on: barnyardgrass (Echinochloa crus-galli); assay: Test A preemergence, visual injury rating
Procedure, shortened: as §1

[3] = tested on: giant foxtail (Setaria faberii); assay: Test A preemergence, visual injury rating
Procedure, shortened: as §1

[4] = tested on: kochia (Kochia scoparia); assay: Test A preemergence, visual injury rating
Procedure, shortened: as §1

[5] = tested on: pigweed (Amaranthus retroflexus); assay: Test A preemergence, visual injury rating
Procedure, shortened: as §1

[6] = tested on: ragweed (common ragweed, Ambrosia elatior); assay: Test A preemergence, visual injury rating
Procedure, shortened: as §1

[7] = tested on: Italian ryegrass (Lolium multiflorum); assay: Test A postemergence, visual injury rating
Procedure, shortened: as §1

[8] = tested on: barnyardgrass (Echinochloa crus-galli); assay: Test A postemergence, visual injury rating; details: 0 is no effect, 100 is complete control; for Barnyardgrass plant response rating: 0 to 100 scale, approximately 10 days
Procedure, shortened: as §1

[9] = tested on: blackgrass (Alopecurus myosuroides); assay: Test A postemergence, visual injury rating
Procedure, shortened: as §1

[10] = tested on: corn (Zea mays); assay: Test A postemergence, visual injury rating
Procedure, shortened: as §1

[11] = tested on: galium (catchweed bedstraw, Galium aparine); assay: Test A postemergence, visual injury rating
Procedure, shortened: as §1

[12] = tested on: giant foxtail (Setaria faberii); assay: Test A postemergence, visual injury rating
Procedure, shortened: as §1

[13] = tested on: kochia (Kochia scoparia); assay: Test A postemergence, visual injury rating
Procedure, shortened: as §1

[14] = tested on: pigweed (Amaranthus retroflexus); assay: Test A postemergence, visual injury rating
Procedure, shortened: as §1

[15] = tested on: ragweed (common ragweed, Ambrosia elatior); assay: Test A postemergence, visual injury rating
Procedure, shortened: as §1

[16] = tested on: wheat (Triticum aestivum); assay: Test A postemergence, visual injury rating
Procedure, shortened: as §1

[17] = tested on: barnyardgrass (Echinochloa crus-galli); assay: Test B flooded paddy test, plant response rating; details: 250 g ai/ha; Flood; scale of 0 to 100 where 0 is no effect and 100 is complete control; 13 to 15 days
Procedure, shortened: (§2)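 Pots were flooded to 3 cm above the soil surface at treatment, compound applied directly to the paddy water, and that depth held throughout. Plants were kept in a greenhouse for 13 to 15 days, then visually rated against untreated controls.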

[18] = tested on: ducksalad (Heteranthera limosa); assay: Test B flooded paddy test, plant response rating; details: 250 g ai/ha; Flood; scale of 0 to 100 where 0 is no effect and 100 is complete control; 13 to 15 days
Procedure, shortened: as §2

[19] = tested on: rice (Oryza sativa); assay: Test B flooded paddy test, plant response rating; details: 250 g ai/ha; Flood; scale of 0 to 100 where 0 is no effect and 100 is complete control; 13 to 15 days
Procedure, shortened: as §2

[20] = tested on: sedge, umbrella (small-flower umbrella sedge, Cyperus difformis); assay: Test B flooded paddy test, plant response rating; details: 250 g ai/ha; Flood; scale of 0 to 100 where 0 is no effect and 100 is complete control; 13 to 15 days
Procedure, shortened: as §2

[21] = 31 g ai/ha, 0 to 100 scale, 0 no effect, 100 complete control
[22] = 125 g ai/ha, 0 to 100 scale (0 no effect, 100 complete control)
[23] = 31 g ai/ha, 0 to 100 scale (0 no effect, 100 complete control)
[24] = 125 g ai/ha, 0 to 100 scale, 0 is no effect, 100 is complete control, approximately 10 days
[25] = 500 g ai/ha, 0 to 100 scale (0 no effect, 100 complete control)
[26] = 500 g ai/ha, 0 is no effect, 100 is complete control
[27] = 31 g ai/ha, 0 to 100 scale, 0 is no effect, 100 is complete control, approximately 10 days
[28] = 125 g ai/ha, 0 is no effect, 100 is complete control

CCCCCC(C#N)c1ccccc1Oc1ncc(Cl)cn1 (stereo not drawn) [Compound 141, 2-[(5-chloro-2-pyrmidinyl)oxy]-α-pentylbenzeneacetonitrile]
20: Plant response rating, Kochia [4, 22] | Barnyardgrass plant response rating ([8]; 125 g ai/ha) | Corn plant response rating [10, 24] | Foxtail, Giant plant response rating [12, 23] | Ragweed plant response rating [15, 24] | Plant response rating, Barnyardgrass [17]
10: Plant response rating, Ryegrass, Italian [1, 22] | Plant response rating, Foxtail, Giant [3, 21] | Plant response rating, Kochia [4, 21] | Ryegrass, Italian plant response rating [7, 24] | Barnyardgrass plant response rating ([8]; 31 g ai/ha) | Blackgrass plant response rating [9, 24] | Corn plant response rating [10, 23] | Plant response rating, Rice [19]
40: Galium plant response rating [11, 23] | Foxtail, Giant plant response rating [12, 24] | Pigweed plant response rating [14, 23]
50: Kochia plant response rating [13, 23] | Plant response rating, Sedge, Umbrella [20]
60: Plant response rating, Barnyardgrass [2, 22] | Galium plant response rating [11, 24] | Kochia plant response rating [13, 24]
90: Plant response rating, Pigweed [5, 22]
30: Plant response rating, Ragweed [6, 22]
100: Plant response rating, Foxtail, Giant [3, 22]
0: Plant response rating, Ryegrass, Italian [1, 21] | Plant response rating, Barnyardgrass [2, 21] | Plant response rating, Pigweed [5, 21] | Plant response rating, Ragweed [6, 21] | Ryegrass, Italian plant response rating [7, 23] | Blackgrass plant response rating [9, 23] | Ragweed plant response rating [15, 23] | Wheat plant response rating [16, 23] | Wheat plant response rating [16, 24]
70: Pigweed plant response rating [14, 24] | Plant response rating, Ducksalad [18]

O=C(SCC(F)(F)F)c1c(Br)cccc1Oc1ncc(Cl)cn1 [Compound 85]
90: Galium plant response rating (0 to 100 scale) [11, 26]
70: Foxtail, Giant plant response rating [3, 25] | Pigweed plant response rating (0 to 100 scale) [14, 26]
60: Pigweed plant response rating [5, 25] | Foxtail, Giant plant response rating (0 to 100 scale) [12, 26]
30: Galium plant response rating [11, 24] | Kochia plant response rating [13, 24] | Pigweed plant response rating [14, 24]
0: Ryegrass, Italian plant response rating [1, 22] | Ryegrass, Italian plant response rating [1, 25] | Barnyardgrass plant response rating [2, 22] | Foxtail, Giant plant response rating [3, 22] | Kochia plant response rating [4, 22] | Kochia plant response rating [4, 25] | Pigweed plant response rating [5, 22] | Ragweed plant response rating [6, 22] | Ragweed plant response rating [6, 25] | Ryegrass, Italian plant response rating [7, 24] | Ryegrass, Italian plant response rating (0 to 100 scale) [7, 26] | Barnyardgrass plant response rating ([8]; 125 g ai/ha) | Blackgrass plant response rating [9, 24] | Blackgrass plant response rating (0 to 100 scale) [9, 26] | Foxtail, Giant plant response rating [12, 24] | Ragweed plant response rating [15, 24] | Ragweed plant response rating (0 to 100 scale) [15, 26] | Wheat plant response rating [16, 24] | Plant response rating, Barnyardgrass [17] | Plant response rating, Ducksalad [18] | Plant response rating, Rice [19] | Plant response rating, Sedge, Umbrella [20]
80: Kochia plant response rating (0 to 100 scale) [13, 26]
20: Barnyardgrass plant response rating (0 to 100 scale) ([8]; 500 g ai/ha) | Wheat plant response rating (0 to 100 scale) [16, 26]
10: Barnyardgrass plant response rating [2, 25] | Corn plant response rating [10, 24]
40: Corn plant response rating (0 to 100 scale) [10, 26]

CCOc1cccc(Oc2ncc(Cl)cn2)c1C(=O)OCCC(F)(F)F [Compound 116]
70: Plant response rating, Pigweed [5, 22] | Plant response rating, Rice [19]
90: Plant response rating, Sedge, Umbrella [20]
30: Plant response rating, Foxtail, Giant [3, 22] | Plant response rating, Ragweed [6, 21] | Galium plant response rating [11, 27] | Plant response rating, Barnyardgrass [17]
75: Plant response rating, Ducksalad [18]
50: Plant response rating, Pigweed [5, 21] | Pigweed plant response rating [14, 24]
20: Foxtail, Giant plant response rating [12, 24]
10: Barnyardgrass plant response rating ([8]; 125 g ai/ha) | Corn plant response rating [10, 24] | Kochia plant response rating [13, 24]
40: Pigweed plant response rating [14, 27]
60: Galium plant response rating [11, 24]
0: Plant response rating, Ryegrass, Italian [1, 21] | Plant response rating, Ryegrass, Italian [1, 22] | Plant response rating, Barnyardgrass [2, 21] | Plant response rating, Barnyardgrass [2, 22] | Plant response rating, Foxtail, Giant [3, 21] | Plant response rating, Kochia [4, 21] | Plant response rating, Kochia [4, 22] | Plant response rating, Ragweed [6, 22] | Ryegrass, Italian plant response rating [7, 27] | Ryegrass, Italian plant response rating [7, 24] | Barnyardgrass plant response rating ([8]; 31 g ai/ha) | Blackgrass plant response rating [9, 27] | Blackgrass plant response rating [9, 24] | Corn plant response rating [10, 27] | Foxtail, Giant plant response rating [12, 27] | Kochia plant response rating [13, 27] | Ragweed plant response rating [15, 27] | Ragweed plant response rating [15, 24] | Wheat plant response rating [16, 27] | Wheat plant response rating [16, 24]

FC(F)(F)C(F)(F)COCc1c(Br)cccc1Oc1ncc(Cl)cn1 [Compound 63]
45: Plant response rating, Barnyardgrass [17]
50: Kochia plant response rating (0 to 100 scale) [13, 28]
10: Plant response rating, Foxtail, Giant [3, 21] | Barnyardgrass plant response rating (0 to 100 scale) ([8]; 125 g ai/ha) | Corn plant response rating [10, 27]
100: Barnyardgrass plant response rating [2, 22] | Plant response rating, Ducksalad [18] | Plant response rating, Sedge, Umbrella [20]
25: Plant response rating, Rice [19]
60: Pigweed plant response rating (0 to 100 scale) [14, 28]
20: Kochia plant response rating [13, 27] | Pigweed plant response rating [14, 27]
30: Corn plant response rating (0 to 100 scale) [10, 28] | Galium plant response rating (0 to 100 scale) [11, 28] | Foxtail, Giant plant response rating (0 to 100 scale) [12, 28]
40: Plant response rating, Barnyardgrass [2, 21]
0: Plant response rating, Ryegrass, Italian [1, 21] | Ryegrass, Italian plant response rating [1, 22] | Plant response rating, Kochia [4, 21] | Kochia plant response rating [4, 22] | Plant response rating, Pigweed [5, 21] | Plant response rating, Ragweed [6, 21] | Ragweed plant response rating [6, 22] | Ryegrass, Italian plant response rating [7, 27] | Ryegrass, Italian plant response rating (0 to 100 scale) [7, 28] | Barnyardgrass plant response rating ([8]; 31 g ai/ha) | Blackgrass plant response rating [9, 27] | Blackgrass plant response rating (0 to 100 scale) [9, 28] | Galium plant response rating [11, 27] | Foxtail, Giant plant response rating [12, 27] | Ragweed plant response rating [15, 27] | Ragweed plant response rating (0 to 100 scale) [15, 28] | Wheat plant response rating [16, 27] | Wheat plant response rating (0 to 100 scale) [16, 28]
90: Foxtail, Giant plant response rating [3, 22] | Pigweed plant response rating [5, 22]
